Measured values: patent US20250092081A1, “USE OF GLYCOSYLTRASNFERASE INHIBITORS FOR TREATING CANCER” (CALIFORNIA INSTITUTE OF TECHNOLOGY, priority 2020, published 2025)
Converted amounts (≈) assume the structure as drawn.

Experiments:
C. difficile spores = assay: Spore viability testing; assay type: cell-based; settings: for Viability of C. difficile spores: x2 MIC, 24 hours, CFU on taurocholate agar; for Inhibition of C. difficile spore germination: x5 MIC
C. difficile ATCC43596 = assay: Minimum inhibitory concentration assay; settings: for C. difficile ATCC43596 MIC: 48 h, 37° C., anaerobic
sheep blood = assay: Hemolysis of sheep blood; assay type: cell-based; settings: Ovis aries
C. difficile = assay: Antibacterial activity (FIG. 4), C. difficile; assay type: cell-based
Panc-1 cells = assay: Boyden chamber migration assay, Panc-1; assay type: cell-based; settings: FIG. 7
[1] = Cytotoxicity MTT assay, MDA-MB-435S; assay type: cell-based; settings: human, MDA-MB-435S cells
Protocol: (§1) Selected molecules were tested for cytotoxicity (IC50) in cancer and healthy cells via a MTT colorimetric assay.
(§2) Each cell was cultured in recommended medium by ATCC, and the IC50 data were obtained with each cell line.

[2] = Cytotoxicity MTT assay, L12210; assay type: cell-based; settings: mouse, L12210 cells
Protocol: as §1, §2

[3] = Cytotoxicity MTT assay, HCT 116; assay type: cell-based; settings: human, HCT 116 cells
Protocol: as §1, §2

MDA-MB-231 cells [4] = assay: Animal model of triple negative breast cancer (MDA-MB-231 implanted); assay type: in vivo; settings: mice, MDA-MB-231, 10 mg/kg/day, FIG. 10
Protocol: An animal model of triple negative breast cancer was generated by implantation of MDA-MB-231 cells into mice. […] A second group of mice were treated with paclitaxel at 15 mg/kg.

Water solubility = assay type: physicochemical; settings: 11 relative to 10
[5] = system: patient-derived cell line (BCI-12); assay: Animal model of Her2+ breast cancer (BCI-12 implanted); assay type: in vivo; settings: mice
Protocol: An animal model of Her2+ breast cancer was generated by implantation of cells of a patient-derived cell line (BCI-12) into mice. Said mice were treated with compound 11, with the therapeutic monoclonal antibody transtuzumab (TzMAb), or a combination of compound 11 and transtuzumab.

[6] = Cytotoxicity MTT assay, LoVo; assay type: cell-based; settings: human, LoVo cells
Protocol: as §1, §2

MraY = MraY (Escherichia coli (strain K12), UniProt P0A6W3); assay: MraY assay; assay type: biochemical; settings: relative to FR-900493 (1)
MDA-MB-231 cells [7] = assay: Expression of tumor markers in MDA-MB-231 cells; assay type: cell-based; settings: 48 hours of exposure, FIG. 12
Excerpt: It should be appreciated that MDA-MB-231 is a high DPAGT1 expressing, triple negative cell line. […] Erb2 (HER2), Erb3 (HER3), and Erb4 (HER4) are elevated.

[8] = Cytotoxicity MTT assay, HPAF-II; assay type: cell-based; settings: human, HPAF-II cells
Protocol: as §1, §2

[9] = system: AsPc-1 (pancreatic cancer) cells; assay: Synergistic assay (checkerboard) on AsPc-1 cells; assay type: cell-based
Protocol: Synergistic Assay. The synergistic or antagonistic activities of 11 with other cancer drugs on AsPc-1 (pancreatic cancer) cells were assessed in vitro via micro dilution broth checkerboard technique previously reported. The FIC index was calculated according to the following equation. ΣFIC=FICA+FICB=CA/MICA+CB/MICB where MICA and MICB are MIC of drugs A and B, CA and CB are the concentrations of drugs A and B used in combination. In these interaction studies, ΣFIC of less than 0.5 represents synergistic activity.
These experiments were performed in the same manner as those of Example 8.

[10] = Cytotoxicity MTT assay, SK-OV-3; assay type: cell-based; settings: human, SK-OV-3 cells
Protocol: as §1, §2

WecA = WecA (Escherichia coli (strain K12), UniProt P0AC78); assay: WecA assay (Table 1); settings: relative to FR-900493 (1)
AsPc-1 cells = assay: Scratch (wound healing) assay, AsPc-1; assay type: cell-based; settings: FIG. 9
[11] = Cytotoxicity MTT assay, KB; assay type: cell-based; settings: human, KB cells
Protocol: as §1, §2

Vero cells = assay: Cytotoxicity MTT assay, Vero cells; assay type: cell-based, monkey
[12] = Cytotoxicity MTT assay, AsPc-1; assay type: cell-based; settings: human, AsPc-1 cells
Protocol: as §1, §2

[13] = Cytotoxicity MTT assay, Panc-1; assay type: cell-based; settings: human, Panc-1 cells
Protocol: as §1, §2

MraY, sequence (P0A6W3 whole entry, looked up, species assumed): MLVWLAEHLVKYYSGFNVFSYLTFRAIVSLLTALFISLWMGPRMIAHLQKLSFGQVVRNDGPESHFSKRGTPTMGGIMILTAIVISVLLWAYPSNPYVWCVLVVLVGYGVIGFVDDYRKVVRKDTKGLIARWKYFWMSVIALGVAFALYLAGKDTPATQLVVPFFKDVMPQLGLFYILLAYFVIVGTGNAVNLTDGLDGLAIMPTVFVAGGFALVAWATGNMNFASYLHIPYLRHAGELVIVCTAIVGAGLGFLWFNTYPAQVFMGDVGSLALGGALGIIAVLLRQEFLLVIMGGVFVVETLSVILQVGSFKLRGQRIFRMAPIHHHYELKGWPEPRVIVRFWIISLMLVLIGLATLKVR
WecA, sequence (P0AC78 whole entry, looked up, species assumed): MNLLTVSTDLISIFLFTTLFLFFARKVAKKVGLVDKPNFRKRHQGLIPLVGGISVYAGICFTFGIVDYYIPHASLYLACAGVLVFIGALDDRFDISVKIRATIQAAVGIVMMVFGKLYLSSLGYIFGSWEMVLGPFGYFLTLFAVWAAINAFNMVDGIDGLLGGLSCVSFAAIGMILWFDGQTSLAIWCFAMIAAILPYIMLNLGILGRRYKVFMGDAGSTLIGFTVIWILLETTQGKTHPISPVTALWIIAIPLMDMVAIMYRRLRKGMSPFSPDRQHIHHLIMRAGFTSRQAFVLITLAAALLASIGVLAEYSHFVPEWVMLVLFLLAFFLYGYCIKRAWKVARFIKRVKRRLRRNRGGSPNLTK

## CCCCCCCc1ccc(NC(=O)CCCN(C)[C@H](C(N)=O)[C@H](OC2O[C@H](CN)[C@@H](O)[C@H]2O)[C@H]2O[C@@H](n3ccc(=O)[nH]c3=O)C(O)[C@H]2O)cc1 (stereo partly drawn) [Compound 9]
C. difficile spores
  Viability of C. difficile spores: caused loss of viability
C. difficile ATCC43596
  anti-C. difficile growth inhibitory activity (in words): weak

## CCCCCCCc1ccc(NC(=O)CCCN[C@H](C(N)=O)[C@H](OC2O[C@H](CN)[C@@H](O)[C@H]2O)[C@H]2O[C@@H](n3ccc(=O)[nH]c3=O)C(O)[C@H]2O)cc1 (stereo partly drawn) [Compound 10]
Sheep blood
  IC50: 70000 nM
C. difficile spores
  Viability of C. difficile spores: caused loss of viability

## NC[C@H]1O[C@@H](O[C@H]([C@H]2O[C@@H](n3ccc(=O)[nH]c3=O)[C@H](O)[C@@H]2O)[C@H](NCCCC(=O)NCc2ccc(N3CCC(Oc4ccc(C(F)(F)F)cc4)CC3)cc2)C(N)=O)[C@H](O)[C@@H]1O [Compound 11]
C. difficile
  antibacterial activity against C. difficile: displayed antibacterial activity
Panc-1 cells
  Panc-1 migratory cells: fewer Panc-1 migratory cells than Gemcitabine, Taxol, and Tunicamycin
[1]
  IC50: 7090 nM
[2]
  IC50: > 100000 nM
[3]
  IC50: 3540 nM
MDA-MB-231 cells [4]
  effect compared with paclitaxel (15 mg/kg): at least equivalent to palctitaxel
Water solubility
  water solubility greater than 10: 200 times
[5]; BCI-12, FIG. 11
  effect compared with transtuzumab: at least equivalent to transtuzumab
[5]; BCI-12, about days 20 to 30 of treatment
  effect of combination of compound 11 and transtuzumab: Improved effects
Sheep blood
  IC50: 206000 nM
[6]
  IC50: 220 nM
MraY
  MraY inhibitory activity, more significant than 1: > 300 times
MDA-MB-231 cells [7]
  expression of DPAGT1 (RPKM Expression Value): sharply reduced
  expression of EGFR (HER1): sharply reduced
  expression of Erb2 (HER2): elevated
  expression of Erb3 (HER3): elevated
  expression of Erb4 (HER4): elevated
[8]
  IC50: < 98 nM
C. difficile spores
  Viability of C. difficile spores: caused loss of viability
[9]; AsPc-1, all five combinations, FIC < 0.5
  effect of combinations of 11 and Taxol: synergistic effect
[9]; AsPc-1, both combinations
  effect of combination of 11 and Gemcitabine: synergistic effect
[9]; AsPc-1 cells, Table 5
  IC50 A / IC50 B (drug alone): 982 nM
[9]; AsPc-1 cells, Table 6
  IC50 A / IC50 B (drug alone): 980 nM
[9]; Compound 11 0.0488281 μM + Gemcitabine 0.024414 μM
  AsPc-1 cells dead/alive: alive
[9]; Compound 11 0.0488281 μM + Gemcitabine 0.048828 μM
  AsPc-1 cells dead/alive: alive
[9]; Compound 11 0.0488281 μM + Gemcitabine 0.097656 μM
  AsPc-1 cells dead/alive: dead
[9]; Compound 11 0.0488281 μM + Gemcitabine 0.195313 μM
  AsPc-1 cells dead/alive: dead
[9]; Compound 11 0.0488281 μM + Gemcitabine 0.390625 μM
  AsPc-1 cells dead/alive: dead
[9]; Compound 11 0.0976563 μM + Gemcitabine 0.024414 μM
  AsPc-1 cells dead/alive: alive
[9]; Compound 11 0.0976563 μM + Gemcitabine 0.048828 μM
  AsPc-1 cells dead/alive: alive
[9]; Compound 11 0.0976563 μM + Gemcitabine 0.097656 μM
  AsPc-1 cells dead/alive: dead
[9]; Compound 11 0.0976563 μM + Gemcitabine 0.195313 μM
  AsPc-1 cells dead/alive: dead
[9]; Compound 11 0.0976563 μM + Gemcitabine 0.390625 μM
  AsPc-1 cells dead/alive: dead
[9]; Compound 11 0.1953125 μM + Gemcitabine 0.024414 μM
  AsPc-1 cells dead/alive: alive
[9]; Compound 11 0.1953125 μM + Gemcitabine 0.048828 μM
  AsPc-1 cells dead/alive: alive
[9]; Compound 11 0.1953125 μM + Gemcitabine 0.097656 μM
  AsPc-1 cells dead/alive: dead
[9]; Compound 11 0.1953125 μM + Gemcitabine 0.195313 μM
  AsPc-1 cells dead/alive: dead
[9]; Compound 11 0.1953125 μM + Gemcitabine 0.390625 μM
  AsPc-1 cells dead/alive: dead
[9]; Compound 11 0.390625 μM + Gemcitabine 0.024414 μM
  AsPc-1 cells dead/alive: alive
[9]; Compound 11 0.390625 μM + Gemcitabine 0.048828 μM
  AsPc-1 cells dead/alive: alive
[9]; Compound 11 0.390625 μM + Gemcitabine 0.097656 μM
  AsPc-1 cells dead/alive: dead
[9]; Compound 11 0.390625 μM + Gemcitabine 0.195313 μM
  AsPc-1 cells dead/alive: dead
[9]; Compound 11 0.390625 μM + Gemcitabine 0.390625 μM
  AsPc-1 cells dead/alive: dead
[9]; Compound 11 0.78125 μM + Gemcitabine 0.024414 μM
  AsPc-1 cells dead/alive: alive
[9]; Compound 11 0.78125 μM + Gemcitabine 0.048828 μM
  AsPc-1 cells dead/alive: alive
[9]; Compound 11 0.78125 μM + Gemcitabine 0.097656 μM
  AsPc-1 cells dead/alive: dead
[9]; Compound 11 0.78125 μM + Gemcitabine 0.195313 μM
  AsPc-1 cells dead/alive: dead
[9]; Compound 11 0.78125 μM + Gemcitabine 0.390625 μM
  AsPc-1 cells dead/alive: dead
[10]
  IC50: 2850 nM
WecA
  WecA inhibitory activity, more significant than 1: about 15 fold
AsPc-1 cells
  AsPc-1 cell migration, scratch assay: less AsPc-1 cell migration than Gemcitabine
[11]
  IC50: 7090 nM
Vero cells
  cytotoxic effects on healthy, non-cancerous Vero cells: little cytotoxic effects
[12]
  IC50: 950 nM
[13]
  IC50: < 98 nM

## CN(CCCC(=O)NCc1ccc(N2CCC(Oc3ccc(C(F)(F)F)cc3)CC2)cc1)[C@H](C(N)=O)[C@H](O[C@@H]1O[C@H](CN)[C@@H](O)[C@H]1O)[C@H]1O[C@@H](n2ccc(=O)[nH]c2=O)[C@H](O)C1O (stereo partly drawn) [Compound 12]
C. difficile ATCC43596
  anti-C. difficile growth inhibitory activity (in words): weak

## CN(CCCN)[C@H](C(=O)O)[C@H](O[C@@H]1O[C@H](CN)[C@@H](O)[C@H]1O)[C@H]1O[C@@H](n2ccc(=O)[nH]c2=O)[C@H](O)[C@@H]1O [FR-900493 (1), FR-900493]
C. difficile ATCC43596
  C. difficile ATCC43596 MIC: >50 µg/mL

## Nc1ccn([C@@H]2O[C@H](CO)[C@@H](O)C2(F)F)c(=O)n1 [Gemcitabine, reference compound]
[9]; AsPc-1 cells, Table 6
  IC50 A / IC50 B (drug alone): 390 nM
[9]; AsPc-1 cells, combination of 11 (A) and Gemcitabine (B), per entry
  CA and CB (concentrations of drugs A and B used in combination): 0.37 µM

## CC(=O)O[C@H]1C(=O)[C@@]2(C)[C@H]([C@H](OC(=O)c3ccccc3)[C@]3(O)C[C@H](OC(=O)[C@H](O)[C@@H](NC(=O)c4ccccc4)c4ccccc4)C(C)=C1C3(C)C)[C@]1(OC(C)=O)CO[C@@H]1C[C@@H]2O [Taxol, Paclitaxel, reference compound]
[1]
  IC50: 110 nM
[2]
  IC50: 550 nM
[6]
  IC50: 57 nM
[8]
  IC50: 20 nM
[9]; AsPc-1 cells, Table 5
  IC50 A / IC50 B (drug alone): 550 nM
[9]; combined with 11
  lowest Taxol concentration to kill AsPc-1 cells when combined with 11: 7 nM
[10]
  IC50: 1080 nM
[11]
  IC50: 790 nM
[12]
  IC50: 190 nM
[13]
  IC50: 20 nM

## CC(=O)NC[C@H]1CN(c2ccc(N3CCOCC3)c(F)c2)C(=O)O1 [linezolid, reference compound]
C. difficile spores
  Inhibition of C. difficile spore germination: did not inhibit the spore germination

## Cc1ncc([N+](=O)[O-])n1CCO [metronidazole, reference compound]
C. difficile spores
  Inhibition of C. difficile spore germination: did not inhibit the spore germination

## CN[C@H](CC(C)C)C(=O)N[C@H]1C(=O)N[C@@H](CC(N)=O)C(=O)N[C@H]2C(=O)N[C@H]3C(=O)N[C@H](C(=O)N[C@H](C(=O)O)c4cc(O)cc(O)c4-c4cc3ccc4O)[C@H](O)c3ccc(c(Cl)c3)Oc3cc2cc(c3O[C@@H]2O[C@H](CO)[C@@H](O)[C@H](O)[C@H]2O[C@H]2C[C@](C)(N)[C@H](O)[C@H](C)O2)Oc2ccc(cc2Cl)[C@H]1O [vancomycin, reference compound]
C. difficile spores
  Inhibition of C. difficile spore germination: did not inhibit the spore germination
C. difficile ATCC43596
  MIC against C. difficile (reference antibiotic): 2.5 µg/mL (≈ 1.73 µM)

## Tunicamycin
C. difficile ATCC43596
  C. difficile ATCC43596 MIC: >50 µg/mL
